pIC50: −log10 of the molar value.
Legend:
[1] = molecular target: T1, human TLR9 (Homo sapiens, UniProt Q9NR96); assay: HEK293-Blue-hTLR-9 cells assay; format: cell-based; conditions: HEK293-Blue-hTLR9 cells, ODN2006 stimulation, 20 hrs, SEAP reporter; read-out: HEK/hTLR9 IC50
T1 construct: host or cells: HEK293 (HEK-Blue hTLR9)
T1 sequence (Q9NR96 26-1032): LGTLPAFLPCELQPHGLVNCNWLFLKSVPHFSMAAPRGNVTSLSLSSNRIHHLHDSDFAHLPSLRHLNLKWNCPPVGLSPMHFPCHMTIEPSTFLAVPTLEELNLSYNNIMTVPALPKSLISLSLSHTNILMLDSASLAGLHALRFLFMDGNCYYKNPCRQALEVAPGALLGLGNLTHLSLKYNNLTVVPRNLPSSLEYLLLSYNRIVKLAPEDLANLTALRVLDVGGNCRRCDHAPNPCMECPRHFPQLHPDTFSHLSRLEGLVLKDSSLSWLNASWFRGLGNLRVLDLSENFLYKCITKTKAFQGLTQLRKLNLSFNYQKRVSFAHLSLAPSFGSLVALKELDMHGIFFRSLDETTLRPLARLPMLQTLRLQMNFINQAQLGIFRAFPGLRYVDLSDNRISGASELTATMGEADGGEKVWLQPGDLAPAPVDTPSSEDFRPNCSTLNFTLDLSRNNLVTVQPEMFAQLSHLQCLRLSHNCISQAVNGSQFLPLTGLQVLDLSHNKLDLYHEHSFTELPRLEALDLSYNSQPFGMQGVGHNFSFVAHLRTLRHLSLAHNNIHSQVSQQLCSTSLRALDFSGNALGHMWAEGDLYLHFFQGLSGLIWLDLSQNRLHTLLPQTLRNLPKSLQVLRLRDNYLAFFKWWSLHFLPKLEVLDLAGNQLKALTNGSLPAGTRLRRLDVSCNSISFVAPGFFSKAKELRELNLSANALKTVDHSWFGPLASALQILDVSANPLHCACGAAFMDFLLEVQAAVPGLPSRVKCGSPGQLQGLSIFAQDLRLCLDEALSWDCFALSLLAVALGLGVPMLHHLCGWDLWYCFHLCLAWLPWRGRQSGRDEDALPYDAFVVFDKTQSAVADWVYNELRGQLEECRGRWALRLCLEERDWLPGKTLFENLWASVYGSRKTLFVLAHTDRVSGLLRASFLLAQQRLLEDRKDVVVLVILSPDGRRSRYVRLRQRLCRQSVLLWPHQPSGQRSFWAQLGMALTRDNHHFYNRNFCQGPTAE

[2] = molecular target: T2, hERG channel (Homo sapiens, UniProt Q12809); assay: hERG channel inhibition assay (patch-clamp, CHOhERG cells); format: cell-based
T2 construct: expressed in transfected cells; host or cells: CHO (Chinese hamster ovary), CHOhERG
T2 sequence (Q12809 whole entry): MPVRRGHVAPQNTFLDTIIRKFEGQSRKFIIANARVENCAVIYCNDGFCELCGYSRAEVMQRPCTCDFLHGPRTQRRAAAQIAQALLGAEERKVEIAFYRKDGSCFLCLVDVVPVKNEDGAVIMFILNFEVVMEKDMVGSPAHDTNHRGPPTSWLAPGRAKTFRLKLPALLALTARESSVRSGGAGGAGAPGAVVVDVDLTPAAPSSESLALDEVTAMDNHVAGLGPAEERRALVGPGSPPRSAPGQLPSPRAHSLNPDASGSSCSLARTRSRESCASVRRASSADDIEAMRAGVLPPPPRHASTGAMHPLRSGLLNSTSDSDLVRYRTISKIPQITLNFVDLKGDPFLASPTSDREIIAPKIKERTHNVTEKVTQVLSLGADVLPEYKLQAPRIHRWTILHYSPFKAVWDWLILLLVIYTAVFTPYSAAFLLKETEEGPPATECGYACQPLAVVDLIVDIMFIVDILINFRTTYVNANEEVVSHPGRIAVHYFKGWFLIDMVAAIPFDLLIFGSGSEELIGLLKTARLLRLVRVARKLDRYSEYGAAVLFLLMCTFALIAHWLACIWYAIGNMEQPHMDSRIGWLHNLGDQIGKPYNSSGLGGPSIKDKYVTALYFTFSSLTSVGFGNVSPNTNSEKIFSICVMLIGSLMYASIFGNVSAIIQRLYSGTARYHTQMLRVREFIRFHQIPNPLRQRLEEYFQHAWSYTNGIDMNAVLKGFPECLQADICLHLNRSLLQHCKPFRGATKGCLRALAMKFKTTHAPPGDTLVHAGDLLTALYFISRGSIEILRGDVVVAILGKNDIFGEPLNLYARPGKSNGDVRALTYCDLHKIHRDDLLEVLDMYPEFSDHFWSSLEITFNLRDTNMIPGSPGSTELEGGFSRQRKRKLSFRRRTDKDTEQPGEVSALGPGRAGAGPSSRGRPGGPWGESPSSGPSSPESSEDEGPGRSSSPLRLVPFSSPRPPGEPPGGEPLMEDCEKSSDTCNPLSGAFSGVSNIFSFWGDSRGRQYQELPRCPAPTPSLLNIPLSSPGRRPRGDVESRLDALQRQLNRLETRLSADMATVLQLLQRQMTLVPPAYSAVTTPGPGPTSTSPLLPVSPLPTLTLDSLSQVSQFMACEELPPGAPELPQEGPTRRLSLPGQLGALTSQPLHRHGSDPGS
How it was run: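 Whole-cell voltage-clamp recordings of IKhERG in CHO cells stably expressing human hERG, stimulated at 0.1 Hz. Compound applied at rising concentrations, each held 3–10 min to reach steady state; current amplitude and kinetics compared with pre-drug control set as 100%.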

For [2H]c1ccc2c(N3C[C@@H]4CN(c5ccc6c(n5)CCNC6)CCN4[C@@H](C)C3)ccc(C#N)c2n1 [Example 121, 5-[(4S,9aR)-4-methyl-8-(5,6,7,8-tetrahydro-1,6-naphthyridin-2-yl)-3,4,6,7,9,9a-hexahydro-1H-pyrazino[1,2-a]pyrazin-2-yl]-2-deuterio-quinoline-8-carbonitrile], the pIC50 [1] was 7.07, the pIC50 ([2]; CHOhERG cells, whole-cell patch-clamp) was < 4.70 and the IC20 ([2]; human, CHO cells stably expressing hERG (CHOhERG), CHOhERG cells, whole-cell patch-clamp) was > 10 µM. The “hERG IC20/TLR7 IC50” value ([2]; safety ratio) was >2000, the “hERG IC20/TLR8 IC50” value ([2]; safety ratio) was >10000 and the “hERG IC20/TLR9 IC50” value ([2]; safety ratio) was >117.

Reference: patent publication US20220340597A1, “HEXAHYDRO-1H-PYRAZINO[1,2-A]PYRAZINE COMPOUNDS FOR THE TREATMENT OF AUTOIMMUNE DISEASE” (Hoffmann-La Roche Inc., priority 2019, published 2022)
